According to US20250049035A1, “MICROBIOCIDAL BICYCLE HETEROCYCLIC DERIVATIVES” (SYNGENTA CROP PROTECTION AG, priority 2021, published 2025):

How the values were obtained:
[1] = system: Mycosphaerella graminicola (Septoria tritici); experiment: Mycosphaerella graminicola (Septoria tritici) / liquid culture (Septoria blotch); assay type: cell-based; details: Zymoseptoria tritici, liquid culture (potato dextrose broth), growth inhibition photometrically 4-5 days after application, compared to untreated control
Description: (§1) Example B15: Mycosphaerella graminicola (Septoria tritici/Liquid Culture (Septoria Blotch) Conidia of the fungus from cryogenic storage are directly mixed into a nutrient broth (potato dextrose broth). After placing a DMSO solution of test compound into a microtiter plate (96-well format), the nutrient broth containing the fungal spores is added. The test plates are incubated at 24° C. and the inhibition of growth is determined photometrically 4-5 days after application.

[2] = system: Mycosphaerella arachidis (Cercospora arachidicola); experiment: Mycosphaerella arachidis (Cercospora arachidicola) / liquid culture (early leaf spot); assay type: cell-based; details: liquid culture (potato dextrose broth), growth inhibition photometrically 4-5 days after application, compared to untreated control
Description: as §1, with “B10:” for “B15:”, “arachidis (Cercospora arachidicola)/Liquid” for “graminicola (Septoria tritici/Liquid”, “(Early Leaf Spot)” for “(Septoria Blotch)”, “broth)” for “broth).”

[3] = system: Pyrenophora teres; experiment: Pyrenophora teres / barley / leaf disc preventative (net blotch); assay type: in vivo; details: foliar, barley leaf segments cv. Hasso, inoculated 2 days after application, assessed 5-7 days after application, compared to untreated control
Description: Example B12: Pyrenophora teres/Barley/Leaf Disc Preventative (Net Blotch) Barley leaf segments cv. Hasso are placed on agar in a multiwell plate (24-well format) and sprayed with the formulated test compound diluted in water. The leaf segments are inoculated with a spore suspension of the fungus 2 days after application. The inoculated leaf segments are incubated at 20° C. and 65% relative humidity under a light regime of 12 h light/12 h darkness in a climate cabinet and the activity of a compound is assessed as disease control compared to untreated when an appropriate level of disease damage appears in untreated check leaf segments (5-7 days after application).

[4] = system: Phaeosphaeria nodorum (Septoria nodorum); experiment: Phaeosphaeria nodorum (Septoria nodorum) / wheat / leaf disc preventative (glume blotch); assay type: in vivo; details: Parastagonospora nodorum, foliar, wheat leaf segments cv. Kanzler, inoculated 2 days after application, assessed 5-7 days after application, compared to untreated control
Description: Example B8: Phaeosphaeria Nodorum (Septoria nodorum)/Wheat/Leaf Disc Preventative (Glume Blotch) Wheat leaf segments cv. Kanzler are placed on agar in a multiwell plate (24-well format) and sprayed with the formulated test compound diluted in water. The leaf disks are inoculated with a spore suspension of the fungus 2 days after application. The inoculated test leaf disks are incubated at 20° C. and 75% relative humidity under a light regime of 12 h light/12 h darkness in a climate cabinet and the activity of a compound is assessed as percent disease control compared to untreated when an appropriate level of disease damage appears in untreated check leaf disks (5-7 days after application).

[5] = system: Alternaria solani; experiment: Alternaria solani / tomato / leaf disc (early blight); assay type: in vivo; details: foliar, tomato leaf disks cv. Baby, inoculated 2 days after application, assessed 5-7 days after application, compared to untreated control
Description: Example B1: Alternaria solani/Tomato/Leaf Disc (Early Blight) Tomato leaf disks cv. Baby are placed on agar in multiwell plates (24-well format) and sprayed with the formulated test compound diluted in water. The leaf disks are inoculated with a spore suspension of the fungus 2 days after application. The inoculated leaf disks are incubated at 23° C./21° C.

[6] = system: Botryotinia fuckeliana (Botrytis cinerea); experiment: Botryotinia fuckeliana (Botrytis cinerea) / liquid culture (gray mould); assay type: cell-based; details: liquid culture (Vogels broth), growth inhibition photometrically 3-4 days after application, compared to untreated control
Description: as §1, with “B2: Botryotinia fuckeliana (Botrytis cinerea)/Liquid” for “B15: Mycosphaerella graminicola (Septoria tritici/Liquid”, “(Gray Mould)” for “(Septoria Blotch)”, “(Vogels” for “(potato dextrose”, “3-4” for “4-5”

[7] = system: Monographella nivalis (Microdochium nivale); experiment: Monographella nivalis (Microdochium nivale) / liquid culture (foot rot cereals); assay type: cell-based; details: liquid culture (potato dextrose broth), growth inhibition photometrically 4-5 days after application, compared to untreated control
Description: as §1, with “B9: Monographella nivalis (Microdochium nivale)/Liquid” for “B15: Mycosphaerella graminicola (Septoria tritici/Liquid”, “(Foot Rot Cereals)” for “(Septoria Blotch)”

[8] = system: Sclerotinia sclerotiorum; experiment: Sclerotinia sclerotiorum / liquid culture (cottony rot); assay type: cell-based; details: liquid culture (potato dextrose broth), growth inhibition photometrically 3-4 days after application, compared to untreated control
Description: Example B14: Sclerotinia sclerotiorum/Liquid Culture (Cottony Rot) Mycelia fragments of a newly grown liquid culture of the fungus are directly mixed into a nutrient broth (potato dextrose broth). After placing a DMSO solution of test compound into a microtiter plate (96-well format) the nutrient broth containing the fungal material is added. The test plates are incubated at 24° C. and the inhibition of growth is determined photometrically 3-4 days after application.

[9] = system: Glomerella lagenarium (Colletotrichum lagenarium); experiment: Glomerella lagenarium (Colletotrichum lagenarium) / liquid culture (anthracnose); assay type: cell-based; details: Colletotrichum orbiculare, liquid culture (potato dextrose broth), growth inhibition photometrically 3-4 days after application, compared to untreated control
Description: as §1, with “B3: Glomerella lagenarium (Colletotrichum lagenarium)/Liquid” for “B15: Mycosphaerella graminicola (Septoria tritici/Liquid”, “(Anthracnose)” for “(Septoria Blotch)”, “measured” for “determined”, “3-4” for “4-5”

[10] = system: Blumeria graminis f. sp. tritici (Erysiphe graminis f. sp. tritici); experiment: Blumeria graminis f. sp. tritici / wheat / leaf disc preventative (powdery mildew); assay type: in vivo; details: foliar, wheat leaf segments cv. Kanzler, inoculated 1 day after application, assessed 6-8 days after application, compared to untreated control
Description: Example B4: Blumeria graminis f. sp. tritici (Erysiphe graminis f. sp. tritici)/Wheat/Leaf Disc Preventative (Powdery Mildew on Wheat) Wheat leaf segments cv. Kanzler are placed on agar in a multiwell plate (24-well format) and sprayed with the formulated test compound diluted in water. The leaf disks are inoculated by shaking powdery mildew infected plants above the test plates 1 day after application. The inoculated leaf disks are incubated at 20° C. and 60% relative humidity under a light regime of 24 h darkness followed by 12 h light/12 h darkness in a climate chamber and the activity of a compound is assessed as percent disease control compared to untreated when an appropriate level of disease damage appears on untreated check leaf segments (6-8 days after application).

[11] = system: Fusarium culmorum; experiment: microbe, parasite or virus in culture; assay type: cell-based; details: read-out: control of Fusarium culmorum

Cc1c(C2CN(C(=O)c3cc(-c4ccc(F)cc4)on3)Cc3sccc32)cnn1C (centres unmarked) [Compound P-30, [4-(1,5-dimethylpyrazol-4-yl)-5,7-dihydro-4H-thieno[2,3-c]pyridin-6-yl]-[5-(4-fluorophenyl)isoxazol-3-yl]methanone]
≥ 80%: inhibition of growth at 20 ppm [1] | inhibition of growth at 20 ppm [2] | pest or weed control at 200 ppm [3] | pest or weed control at 200 ppm [4] | pest or weed control at 200 ppm [5] | inhibition of growth at 20 ppm [6] | inhibition of growth at 20 ppm [7] | inhibition of growth at 20 ppm [8] | inhibition of growth at 20 ppm [9]

Cc1c(C2CN(C(=O)c3cc(-c4ccc(F)cc4F)on3)Cc3nnsc32)cnn1C (centres unmarked) [Compound P-27, [5-(2,4-difluorophenyl)isoxazol-3-yl]-[7-(1,5-dimethylpyrazol-4-yl)-6,7-dihydro-4H-thiadiazolo[4,5-c]pyridin-5-yl]methanone]
≥ 80%: inhibition of growth at 20 ppm [1] | pest or weed control at 200 ppm [3] | pest or weed control at 200 ppm [4] | pest or weed control at 200 ppm [5] | inhibition of growth at 20 ppm [7] | pest or weed control at 200 ppm [10] | inhibition of growth at 20 ppm [9]

C[C@H]1c2sccc2[C@@](C)(c2cnn(C)c2)CN1C(=O)c1nnc(-c2ccc(F)cc2F)s1 (racemic) [Compound P-10, [5-(2,4-difluorophenyl)-1,3,4-thiadiazol-2-yl]-[rac-(4S,7R)-4,7-dimethyl-4-(1-methylpyrazol-4-yl)-5,7-dihydrothieno[2,3-c]pyridin-6-yl]methanone]
≥ 80%: inhibition of growth at 20 ppm [1] | inhibition of growth at 20 ppm [2] | inhibition of growth at 20 ppm [11] | pest or weed control at 200 ppm [4] | pest or weed control at 200 ppm [5] | inhibition of growth at 20 ppm [6] | inhibition of growth at 20 ppm [7] | inhibition of growth at 20 ppm [8] | inhibition of growth at 20 ppm [9]

C[C@H]1c2sccc2[C@@H](c2cnn(C)c2)CN1C(=O)c1nnc(-c2ccc(F)cc2F)s1 (racemic) [Compound P-15, [5-(2,4-difluorophenyl)-1,3,4-thiadiazol-2-yl]-[rac-(4R,7S)-7-methyl-4-(1-methylpyrazol-4-yl)-5,7-dihydro-4H-thieno[2,3-c]pyridin-6-yl]methanone]
≥ 80%: inhibition of growth at 20 ppm [1] | inhibition of growth at 20 ppm [2] | inhibition of growth at 20 ppm [11] | pest or weed control at 200 ppm [3] | pest or weed control at 200 ppm [4] | pest or weed control at 200 ppm [5] | inhibition of growth at 20 ppm [6] | pest or weed control at 200 ppm [10] | inhibition of growth at 20 ppm [9]

C[C@H]1c2sccc2[C@@](C)(c2cnn(C)c2)CN1C(=O)c1cc(-c2ccc(F)cc2F)on1 (racemic) [Compound P-12, [5-(2,4-difluorophenyl)isoxazol-3-yl]-[rac-(4S,7R)-4,7-dimethyl-4-(1-methylpyrazol-4-yl)-5,7-dihydrothieno[2,3-c]pyridin-6-yl]methanone]
≥ 80%: inhibition of growth at 20 ppm [1] | inhibition of growth at 20 ppm [2] | pest or weed control at 200 ppm [4] | pest or weed control at 200 ppm [5] | inhibition of growth at 20 ppm [6] | inhibition of growth at 20 ppm [7] | inhibition of growth at 20 ppm [8] | inhibition of growth at 20 ppm [9]

Cc1c(C2CN(C(=O)c3cc(-c4ccccc4F)on3)Cc3ccsc32)cnn1C (centres unmarked) [Compound P-34, [7-(1,5-dimethylpyrazol-4-yl)-6,7-dihydro-4H-thieno[3,2-c]pyridin-5-yl]-[5-(2-fluorophenyl)isoxazol-3-yl]methanone]
≥ 80%: inhibition of growth at 20 ppm [1] | inhibition of growth at 20 ppm [2] | inhibition of growth at 20 ppm [11] | pest or weed control at 200 ppm [3] | pest or weed control at 200 ppm [4] | pest or weed control at 200 ppm [5] | inhibition of growth at 20 ppm [6] | inhibition of growth at 20 ppm [7] | inhibition of growth at 20 ppm [8] | inhibition of growth at 20 ppm [9]

Cn1cc(C2CN(C(=O)c3nnc(-c4ccc(F)cc4F)s3)Cc3sccc32)cn1 (centres unmarked) [Compound P-24, [5-(2,4-difluorophenyl)-1,3,4-thiadiazol-2-yl]-[4-(1-methylpyrazol-4-yl)-5,7-dihydro-4H-thieno[2,3-c]pyridin-6-yl]methanone]
≥ 80%: inhibition of growth at 20 ppm [1] | inhibition of growth at 20 ppm [2] | inhibition of growth at 20 ppm [11] | pest or weed control at 200 ppm [3] | pest or weed control at 200 ppm [4] | pest or weed control at 200 ppm [5] | inhibition of growth at 20 ppm [6] | inhibition of growth at 20 ppm [7] | inhibition of growth at 20 ppm [8] | inhibition of growth at 20 ppm [9]

Cn1cc(C2(C)CN(C(=O)c3cc(-c4ccc(F)cc4F)on3)Cc3sccc32)cn1 (centres unmarked) [Compound P-19, [5-(2,4-difluorophenyl)isoxazol-3-yl]-[4-methyl-4-(1-methylpyrazol-4-yl)-5,7-dihydrothieno[2,3-c]pyridin-6-yl]methanone]
≥ 80%: inhibition of growth at 20 ppm [1] | inhibition of growth at 20 ppm [2] | pest or weed control at 200 ppm [3] | pest or weed control at 200 ppm [4] | pest or weed control at 200 ppm [5] | inhibition of growth at 20 ppm [6] | pest or weed control at 200 ppm [10] | inhibition of growth at 20 ppm [8] | inhibition of growth at 20 ppm [9]

Cc1c(C2CN(C(=O)c3cc(-c4ccccc4F)on3)Cc3ccsc32)cnn1C (centres unmarked) [Compound P-35, [7-(1,5-dimethylpyrazol-4-yl)-6,7-dihydro-4H-thieno[3,2-c]pyridin-5-yl]-[5-(2-fluorophenyl)isoxazol-3-yl]methanone]
≥ 80%: pest or weed control at 200 ppm [10]

Cc1c(C2CN(C(=O)c3nnc(-c4ccc(F)cc4F)s3)Cc3ccsc32)cnn1C (centres unmarked) [Compound P-7, [5-(2,4-difluorophenyl)-1,3,4-thiadiazol-2-yl]-[7-(1,5-dimethylpyrazol-4-yl)-6,7-dihydro-4H-thieno[3,2-c]pyridin-5-yl]methanone]
≥ 80%: inhibition of growth at 20 ppm [1] | inhibition of growth at 20 ppm [2] | inhibition of growth at 20 ppm [11] | inhibition of growth at 20 ppm [6] | inhibition of growth at 20 ppm [7] | pest or weed control at 200 ppm [10] | inhibition of growth at 20 ppm [8] | inhibition of growth at 20 ppm [9]
